# Literature values, collected in article PMC8752837, “Structural basis of BAK activation in mitochondrial apoptosis initiation” (Nature Communications, 2022).
# Molecular target: T1, Human BAK-∆TM-His6 (BAK) (Homo sapiens, UniProt Q16611)
# T1 construct: C-terminus truncated recombinant human BAK containing C-terminal 6× histidine tag (MEAS-BAK); made in house; host or cells: E. coli T7 Express pLac I/Y
# T1 sequence (Q16611 1-186 limits assumed): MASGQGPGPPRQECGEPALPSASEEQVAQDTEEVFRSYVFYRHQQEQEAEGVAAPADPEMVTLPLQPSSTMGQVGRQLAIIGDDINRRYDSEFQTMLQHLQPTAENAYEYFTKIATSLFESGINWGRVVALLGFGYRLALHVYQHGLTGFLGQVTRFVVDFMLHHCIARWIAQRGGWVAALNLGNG
# Settings: ref Moldoveanu et al NSMB (2013) 20:589; cited from earlier work
# From the text: page 33: helix 1 to be important, and the idea that this could be achieved through somewhat different molecular interactions is neither surprising nor novel. We appreciate the reviewer’s viewpoint but respectfully disagree. We clarify the distinction between W(3)W(5) BID BH3 and BIM-h3Pc-RT inactivated complexes by explaining that stabilization of helix 1 is through indirect contacts in the former (allosteric) and through direct contact in the latter “glue-like” complex. This distinction is now discussed in the highlighted region on pg. 16 being key for the design of small molecule BH3 mimetic ...
smiles,measurement,value
"CC[C@H](C)[C@H](NC(=O)[C@H](CO)NC(=O)[C@H](CCCNC(=N)N)NC(=O)[C@H](CC(=O)O)NC(=O)[C@H](CCSC)NC(=O)[C@H](CO)NC(=O)[C@H](CC(=O)O)NC(=O)CNC(=O)[C@@H](NC(=O)[C@H](CCC(N)=O)NC(=O)[C@H](C)NC(=O)[C@H](CC(C)C)NC(=O)[C@H](Cc1c[nH]cn1)NC(=O)[C@H](CCCNC(=N)N)NC(=O)[C@H](C)NC(=O)[C@@H](NC(=O)[C@H](CC(N)=O)NC(=O)[C@H](CCCNC(=N)N)NC(=O)[C@@H](NC(=O)[C@@H](NC(=O)[C@H](CC(=O)O)NC(=O)[C@H](CCC(=O)O)NC(C)=O)[C@@H](C)CC)[C@@H](C)CC)[C@@H](C)CC)C(C)C)C(N)=O [WT BID BH3, reference compound]",fold less potent than activated full-length BID (N/C BID),~ 100 x
